Data reported in patent US4018801A, “Substituted oxirane compounds” (The Dow Chemical Company, priority 1975, dated 1977).

Tests used:
Test in all cases: Post-emergent control, foliage spray
Type in all cases: in vivo
Details in all cases: about two weeks
Barnyard Grass = test system: Barnyard Grass
Protocol: (§1) An aqueous composition containing 2-(m-bromophenyl)- 2-(2,2,2-trichloroethyl)oxirane was prepared as described in Example 32. Separate portions of this composition were thereafter dispersed in a further quantity of water to prepare aqueous spray compositions containing 250, 500, 1000, 2000 and 4000 parts, respectively of the compound per million parts by weight of ultimate treating composition. These compositions were applied as foliage sprays to various grass and broadleaf plant species, the plants being of two to four inches in height and growing in seed beds. The treatments were carried out with conventional spray equipment, the plants being sprayed to the point of run-off. Similar beds of the plant species were left untreated to serve as checks. After about two weeks, the beds were examined to ascertain what control of the growth of plants had been obtained. The plant species employed, together with the percent control obtained at the employed dosage rate of the composition is set forth in the following Table V.

Crabgrass = test system: Crabgrass
Protocol: as §1

Yellow Foxtail = test system: Yellow Foxtail
Protocol: as §1

Johnson Grass = test system: Johnson Grass
Protocol: as §1

Cultured Rice = test system: Cultured Rice
Protocol: as §1

White Winter Wheat = test system: White Winter Wheat
Protocol: as §1

ClC(Cl)(Cl)CC1(c2cccc(Br)c2)CO1 (stereo not drawn) [Example 3, 2-(m-bromophenyl)-2-(2,2,2-trichloroethyl)oxirane]
Percent Post-Emergent Control of Seed Germination (Barnyard Grass; 250 parts per million): 95% | Percent Post-Emergent Control of Seed Germination (Barnyard Grass; 500 parts per million): 95% | Percent Post-Emergent Control of Seed Germination (Barnyard Grass; 1000 parts per million): 95% | Percent Post-Emergent Control of Seed Germination (Barnyard Grass; 2000 parts per million): 95% | Percent Post-Emergent Control of Seed Germination (Barnyard Grass; 4000 parts per million): 95% | Percent Post-Emergent Control of Seed Germination (Crabgrass; 250 parts per million): 30% | Percent Post-Emergent Control of Seed Germination (Crabgrass; 500 parts per million): 65% | Percent Post-Emergent Control of Seed Germination (Crabgrass; 1000 parts per million): 95% | Percent Post-Emergent Control of Seed Germination (Crabgrass; 2000 parts per million): 95% | Percent Post-Emergent Control of Seed Germination (Crabgrass; 4000 parts per million): 95% | Percent Post-Emergent Control of Seed Germination (Yellow Foxtail; 250 parts per million): 40% | Percent Post-Emergent Control of Seed Germination (Yellow Foxtail; 500 parts per million): 95% | Percent Post-Emergent Control of Seed Germination (Yellow Foxtail; 1000 parts per million): 95% | Percent Post-Emergent Control of Seed Germination (Yellow Foxtail; 2000 parts per million): 95% | Percent Post-Emergent Control of Seed Germination (Yellow Foxtail; 4000 parts per million): 95% | Percent Post-Emergent Control of Seed Germination (Johnson Grass; 250 parts per million): 95% | Percent Post-Emergent Control of Seed Germination (Johnson Grass; 500 parts per million): 95% | Percent Post-Emergent Control of Seed Germination (Johnson Grass; 1000 parts per million): 95% | Percent Post-Emergent Control of Seed Germination (Johnson Grass; 2000 parts per million): 95% | Percent Post-Emergent Control of Seed Germination (Johnson Grass; 4000 parts per million): 95% | Percent Post-Emergent Control of Seed Germination (Cultured Rice; 250 parts per million): 0% | Percent Post-Emergent Control of Seed Germination (Cultured Rice; 500 parts per million): 0% | Percent Post-Emergent Control of Seed Germination (Cultured Rice; 1000 parts per million): 0% | Percent Post-Emergent Control of Seed Germination (Cultured Rice; 2000 parts per million): 40% | Percent Post-Emergent Control of Seed Germination (Cultured Rice; 4000 parts per million): 50% | Percent Post-Emergent Control of Seed Germination (White Winter Wheat; 250 parts per million): 0% | Percent Post-Emergent Control of Seed Germination (White Winter Wheat; 500 parts per million): 0% | Percent Post-Emergent Control of Seed Germination (White Winter Wheat; 1000 parts per million): 50% | Percent Post-Emergent Control of Seed Germination (White Winter Wheat; 2000 parts per million): 50% | Percent Post-Emergent Control of Seed Germination (White Winter Wheat; 4000 parts per million): 50%
